Assay results taken from US20230220063A1, “IL-1BETA BINDING ANTIBODIES FOR USE IN TREATING CANCER” (NOVARTIS AG, priority 2017, published 2023).

Assays:
hsCRP = assay: Gevokizumab: hsCRP change in type 2 diabetes patients; assay type: in vivo, human; conditions: top dose 0.3 mg/kg (~20 mg) Q4W
[1] = Gevokizumab clinical pharmacokinetics; assay type: in vivo, human
[2] = system: vasculature in trabecular bone; assay: Blocking IL-1β signalling: blood vessels in the bone microenvironment of mice; assay type: in vivo
Experimental: Vasculature was visualised following CD34 and endomucin immunohistochemistry and the concentration of vascular endothelial growth factor (VEGF) and endothelin-1 in serum and/or bone marrow was determined by ELISA. Effects on bone volume were measured by Micro computed tomography (uCT).
(§1) Tumor cells, serum, and bone were subsequently resected for downstream analysis.

[3] = system: MDA-MB-231 Luc2-TdTomato cells; assay: Spontaneous human breast cancer metastasis to human bone implants in NOD SCID mice; assay type: in vivo
Experimental: To model human breast cancer metastasis to human bone implants two human bone discs were implanted subcutaneously into 10-week old female NOD SCID mice (n=10/group) under isofluorane anaesthetic. Mice received an injection of 0.003 mg vetergesic and Septrin was added to the drinking water for 1 week following bone implantation. Mice were left for 4 weeks before injecting 1×10^5 MDA-MB-231 Luc2-TdTomato, MCF7 Luc2 or T47D Luc2 cells in 20% Martigel/79% PBS/1% […] into the two hind mammary fat pads. Primary tumor growth and development of metastases was monitored weekly using an IVIS […] system (Caliper Life Sciences) following sub-cutaneous injection of 30 mg/ml D-luciferin (Invitrogen). On termination of experiments mammary tumors, circulating tumor cells, serum and bone metastases were resected. RNA was processed for downstream analysis by real time PCR, and cell lysates were taken for protein analysis and whole tissue for histology as previously described (Nutter et al., 2014; Ottewell et al., 2014a).
as §1
Whole blood was centrifuged at 10,000 g for 5 minutes and the serum removed for ELISA assays. The cell pellet was re-suspended in 5 ml of FSM lysis solution (Sigma-Aldrich, Pool, UK) to lyse red blood cells. Remaining cells were re-pelleted, washed 3x in PBS and re-suspended in a solution of PBS/10% FCS. Samples from 10 mice per group were pooled prior to isolation of TdTomato positive tumor cells using a MoFlow High performance cell sorter (Beckman Coulter, Cambridge UK) with the […] laser line from a Coherent I-90C tenable argon ion (Coherent, Santa Clara, CA). TdTomato fluorescence was detected by a 555LP dichroic long pass and a 580/30 nm band pass filter. Acquisition and analysis of cells was performed using Summit 4.3 software. Following sorting cells were immediately placed in RNA protect cell reagent (Ambion, Paisley, Renfrew, UK) and stored at -80° C. before RNA extraction.

[4] = system: patient-derived breast cancer cells; assay: Breast CSC mammosphere colony formation after exposure to human bone marrow in vitro; assay type: cell-based
Description: (§2) Dissemination of tumour cells to bone marrow is an early event in breast cancer, however these cells may lie dormant in the bone environment for many years prior to eventual colonisation. Treatment for bone metastases is not curative, therefore new adjuvant therapies preventing disseminated cells from becoming metastatic lesions may be an effective therapeutic option to improve clinical outcomes. There is evidence that cancer stemcells (CSCs) within breast tumours are the cells capable of metastasis; however, little is known about which bone marrow-derived factors support dormant CSC survival and eventual colonisation. Using in vitro culture of primary human bone marrow and patient-derived breast cancer cells, and in vivo metastasis models of human breast cancer cells implanted into mice, we investigated signalling pathways regulating CSC colony formation in bone.
(§3) Dissemination of tumour cells to bone marrow is an early event in breast cancer, but these cells may lie dormant in the bone environment for many years before the development of clinical bone metastases. There is evidence that cancer stem cells (CSCs) within breast tumours are the cells capable of metastasis, but the effect of the bone environment on the regulation of CSCs has not been investigated. […] CSC activity following isolation from the bone environment was measured using mammosphere colony formation.

[5] = system: human breast cancer cells; assay: Spontaneous bone metastasis of human breast cancer cells implanted into mice; conditions: mouse
Description: as §2, §3

gevokizumab: high-affinity, humanized monoclonal antibody of the IgG2 isotype to interleukin-1β; INN number 9310; allosteric inhibitor
reduction of hsCRP (hsCRP): up to 45% | Bioavailability ([1]; administered subcutaneously): about 56% | half-life ([1]; human, in vivo): about 35 days

Anakinra: IL-1 receptor antagonist, clinically available recombinant form of the receptor antagonist
average length of new blood vessels ([2]; 1 mg/kg for 21/31 days): downwards trend | endothelin 1 and VEGF in the bone marrow (ELISA) ([2]; compared with control): reduced concentrations | decrease in VEGF concentration ([2]; mice treated with 1 mg/kg for 21 days): 22% | decrease in the concentration of endothelin-1 ([2]; mice treated with 1 mg/kg for 31 days): 69% | average length of CD34^+ blood vessels in trabecular bone ([2]; p < 0.01 vs control): reduced the average length of CD34^+ blood vessels | mice with metastasis detected in human bone implants ([3]; 1 mg/kg IL-1Ra daily or 10 mg/kg canakinumab s.c. every 14 days from day 7, control 7 out of 10): 4 out of 10 | bone metastasis, photons/sec mean values ([3]; Placebo 3.60E+06): 4.83E+04 photons/sec | size of bone metastases ([3]; compared with control group): smaller than those detected in the control group | bone turnover and neovascularisation ([3]; mouse, in vivo): reduced bone turnover and neovascularisation | onset of breast cancer metastasis in human bone ([3]; mouse, in vivo): delayed onset of breast cancer metastasis in human bone | primary tumour growth ([3]; murine model of spontaneous human breast cancer metastasis to human bone): without affecting the development of primary breast cancer | tumor cells counted in whole blood ([3]; placebo 108 tumor cells/ml): 3 tumor cells/ml | induction of CSC activity by the bone marrow in vitro [4]: reverses induction of CSC activity

B1: Vantictumab: a therapeutic antibody which binds 5/10 Frizzled receptors (anti-Wnt) (antibody, chains of the INN, looked up, V domains shown)
VH: EVQLVESGGGLVQPGGSLRLSCAASGFTFSHYTLSWVRQAPGKGLEWVSVISGDGSYTYYADSVKGRFTISSDNSKNTLYLQMNSLRAEDTAVYYCARNFIKYVFANWGQGTLVTVSS
VL: DIELTQPPSVSVAPGQTARISCSGDNIGSFYVHWYQQKPGQAPVLVIYDKSNRPSGIPERFSGSNSGNTATLTISGTQAEDEADYYCQSYANTLSLVFGGGTKLTVL
induction of CSC activity by the bone marrow in vitro [4]: reverses induction of CSC activity | spontaneous bone metastasis in vivo [5]: prevents spontaneous bone metastasis
